Assay results reported in PubChem BioAssay AID328 (DTP/NCI, 2004).
Several values for one entry are separate records, joined by “and”; a condition that tells them apart may be missing. Equal values may be shown once. Toxic doses and inconclusive results are not listed. How the source made its calls: active means survival T/C of 150% or more; inactive means T/C below 125% in these data.

Tested on: BDF1 mice, P388 leukemia ip, median survival T/C
Test: NCI In Vivo Anticancer Drug Screen. Data for tumor model P388 Leukemia (intraperitoneal) in B6D2F1 (BDF1) mice
Details: endpoint: median survival time, higher = longer survival
In short: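 Read-out is survival of treated animals expressed relative to the vehicle group, as a T/C ratio.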

[1] = dose: 100.0 mg/kg/injection, schedule: Q04DX003 (ip), vehicle: Klucel (hydroxypropylcellulose) (HPC)
[2] = dose: 100.0 mg/kg/injection, schedule: Q01DX009 (ip), vehicle: saline with Tween-80
[3] = dose: 200.0 mg/kg/injection, schedule: Q01DX009 (ip), vehicle: saline with Tween-80
[4] = dose: 100.0 mg/kg/injection, schedule: Q04DX003 (ip), vehicle: saline with Tween-80
[5] = dose: 200.0 mg/kg/injection, schedule: Q04DX003 (ip), vehicle: saline with Tween-80
[6] = dose: 400.0 mg/kg/injection, schedule: Q04DX003 (ip), vehicle: saline with Tween-80
[7] = dose: 50.0 mg/kg/injection, schedule: Q01DX009 (ip), vehicle: saline
[8] = dose: 100.0 mg/kg/injection, schedule: Q01DX009 (ip), vehicle: saline
[9] = dose: 200.0 mg/kg/injection, schedule: Q01DX009 (ip), vehicle: saline
[10] = dose: 400.0 mg/kg/injection, schedule: Q04DX003 (ip), vehicle: Klucel (hydroxypropylcellulose) (HPC)
[11] = dose: 25.0 mg/kg/injection, schedule: Q01DX009 (ip), vehicle: saline
[12] = dose: 100.0 mg/kg/injection, schedule: Q04DX003 (ip), vehicle: saline
[13] = dose: 200.0 mg/kg/injection, schedule: Q04DX003 (ip), vehicle: saline
[14] = dose: 400.0 mg/kg/injection, schedule: Q04DX003 (ip), vehicle: saline

Measured: T/C

CC(=O)O.[Cd]
inactive: dose: 5.0 mg/kg/injection, schedule: Q04DX003 (ip), vehicle: saline 95 % of control

Nc1nccc(NC(c2ccccc2)c2ccccc2)c1N
inactive: dose: 3.0 mg/kg/injection, schedule: Q01DX009 (ip), vehicle: DMSO 95 % of control | dose: 6.0 mg/kg/injection, schedule: Q01DX009 (ip), vehicle: DMSO 100 % of control | dose: 12.0 mg/kg/injection, schedule: Q01DX009 (ip), vehicle: DMSO 95 % of control | dose: 12.5 mg/kg/injection, schedule: Q01DX009 (ip), vehicle: DMSO 103 % of control | dose: 12.5 mg/kg/injection, schedule: Q04DX003 (ip), vehicle: DMSO 95 % of control | dose: 25.0 mg/kg/injection, schedule: Q04DX003 (ip), vehicle: DMSO 100 % of control | dose: 50.0 mg/kg/injection, schedule: Q04DX003 (ip), vehicle: DMSO 100 % of control

c1ccc(COc2ccccn2)cc1
inactive: dose: 25.0 mg/kg/injection, schedule: Q04DX003 (ip), vehicle: Klucel (hydroxypropylcellulose) (HPC) 90 % of control | dose: 50.0 mg/kg/injection, schedule: Q04DX003 (ip), vehicle: Klucel (hydroxypropylcellulose) (HPC) 95 % of control | [1] 90 % of control

CCN(CC)c1cc(=S)c2c(ccc3ccccc32)o1
inactive: dose: 50.0 mg/kg/injection, schedule: Q01DX009 (ip), vehicle: saline with Tween-80 100 % of control | [2] 106 % of control | [3] 103 % of control

COC(C)(OC)C(N)=O
inactive: [4] 100 % of control | [5] 100 % of control | [6] 104 % of control

Nc1cc(=O)[nH]c(O)c1C(=O)O
inactive: dose: 6.25 mg/kg/injection, schedule: Q04DX003 (ip), vehicle: saline 109 % of control | dose: 12.5 mg/kg/injection, schedule: Q04DX003 (ip), vehicle: saline 100 % of control | dose: 25.0 mg/kg/injection, schedule: Q04DX003 (ip), vehicle: saline 100 % of control | dose: 35.0 mg/kg/injection, schedule: Q04DX003 (ip), vehicle: saline 100 % of control | dose: 55.0 mg/kg/injection, schedule: Q04DX003 (ip), vehicle: saline 113 % of control | dose: 80.0 mg/kg/injection, schedule: Q04DX003 (ip), vehicle: saline 100 % of control | dose: 120.0 mg/kg/injection, schedule: Q04DX003 (ip), vehicle: saline 104 % of control | dose: 180.0 mg/kg/injection, schedule: Q04DX003 (ip), vehicle: saline 86 % of control | dose: 270.0 mg/kg/injection, schedule: Q04DX003 (ip), vehicle: saline 100 % of control

COc1ccc(C(=O)N(N)C2CCCCC2)cc1
inactive: [7] 105 % of control | [8] 105 % of control | [9] 100 % of control

Cc1ccc(-c2cc(-c3ccccc3)n(-c3ccccc3)n2)cc1
inactive: dose: 264.0 mg/kg/injection, schedule: Q04DX003 (ip), vehicle: Klucel (hydroxypropylcellulose) (HPC) 108 % of control and 109 % of control | [10] 104 % of control and 116 % of control

CCOC(=O)CCc1nc(C(=O)OCC)c(C)c2nnnn12
inactive: [4] 99 % of control | [5] 108 % of control | [6] 95 % of control

O=C(/C=N/O)c1cccnc1
inactive: dose: 25.0 mg/kg/injection, schedule: Q04DX003 (ip), vehicle: saline sonified 100 % of control | dose: 50.0 mg/kg/injection, schedule: Q04DX003 (ip), vehicle: saline sonified 95 % of control | dose: 100.0 mg/kg/injection, schedule: Q04DX003 (ip), vehicle: saline sonified 100 % of control

C[C@]12CC[C@H]3[C@@H](CC[C@]4(O)C[C@@H](O)CC[C@]34/C=N/O)[C@@]1(O)CC[C@@H]2C1=COC(=O)C1
inactive: dose: 1.87 mg/kg/injection, schedule: Q01DX010 (ip), vehicle: carboxymethylcellulose (CMC) 94 % of control | dose: 3.75 mg/kg/injection, schedule: Q01DX010 (ip), vehicle: carboxymethylcellulose (CMC) 100 % of control | dose: 7.5 mg/kg/injection, schedule: Q01DX010 (ip), vehicle: carboxymethylcellulose (CMC) 111 % of control | dose: 15.0 mg/kg/injection, schedule: Q01DX010 (ip), vehicle: carboxymethylcellulose (CMC) 116 % of control | dose: 30.0 mg/kg/injection, schedule: Q01DX010 (ip), vehicle: carboxymethylcellulose (CMC) 111 % of control | dose: 60.0 mg/kg/injection, schedule: Q01DX010 (ip), vehicle: carboxymethylcellulose (CMC) 122 % of control

COc1cc(C(=O)N(C)C)cc(OC)c1OC
inactive: [11] 112 % of control | [7] 98 % of control | [8] 98 % of control | [9] 101 % of control

C[C@]12CCC(=O)C=C1CC[C@H]1[C@@H]3C[C@@H](O)[C@](O)(C(=O)CO)[C@@]3(C)C[C@H](O)[C@@]12F
inactive: [8] 108 % of control | [12] 108 % of control | [9] 87 % of control | [13] 116 % of control | [14] 100 % of control

Cc1cc2nc(Cc3nc4cc(C)c(C)cc4[nH]3)[nH]c2cc1C
inactive: [4] 95 % of control | [5] 90 % of control | [6] 95 % of control

O=C(Nc1ccc(C2=NCCN2)cc1)c1ccc(C(=O)Nc2ccc(C3=NCCN3)cc2)c(Cl)c1
active: dose: 1.56 mg/kg/injection, schedule: Q01DX009 (ip), vehicle: saline with Tween-80 152 % of control | dose: 3.13 mg/kg/injection, schedule: Q01DX009 (ip), vehicle: saline with Tween-80 161 % of control | dose: 6.25 mg/kg/injection, schedule: Q01DX009 (ip), vehicle: saline with Tween-80 189 % of control and 204 % of control | dose: 8.0 mg/kg/injection, schedule: Q01DX010 (ip), vehicle: water 150 % of control and 160 % of control | dose: 10.0 mg/kg/injection, schedule: Q01DX010 (ip), vehicle: water 154 % of control and 195 % of control | dose: 12.0 mg/kg/injection, schedule: Q01DX010 (ip), vehicle: water 160 % of control and 170 % of control | dose: 12.5 mg/kg/injection, schedule: Q01DX009 (ip), vehicle: saline with Tween-80 250 % of control and 200 % of control and 211 % of control
270 % of control and 108 % of control: dose: 25.0 mg/kg/injection, schedule: Q01DX009 (ip), vehicle: saline with Tween-80

CCOC(=O)c1c[nH]c2ccc(OC)cc2c1=O
inactive: [11] 111 % of control | [7] 104 % of control | [8] 117 % of control | [12] 107 % of control | [9] 113 % of control | [13] 98 % of control | dose: 400.0 mg/kg/injection, schedule: Q01DX009 (ip), vehicle: saline 109 % of control | [14] 100 % of control

CC(=O)CC(=O)N1CCCCCC1
inactive: [2] 89 % of control | [4] 109 % of control | [3] 92 % of control | [5] 90 % of control | dose: 400.0 mg/kg/injection, schedule: Q01DX009 (ip), vehicle: saline with Tween-80 107 % of control | [6] 104 % of control

COc1cc(N(C)C)c(OC)cc1C=O
inactive: dose: 50.0 mg/kg/injection, schedule: Q01DX009 (ip), vehicle: Klucel (hydroxypropylcellulose) (HPC) 100 % of control | dose: 100.0 mg/kg/injection, schedule: Q01DX009 (ip), vehicle: Klucel (hydroxypropylcellulose) (HPC) 90 % of control | [1] 95 % of control | dose: 200.0 mg/kg/injection, schedule: Q01DX009 (ip), vehicle: Klucel (hydroxypropylcellulose) (HPC) 109 % of control | dose: 200.0 mg/kg/injection, schedule: Q04DX003 (ip), vehicle: Klucel (hydroxypropylcellulose) (HPC) 95 % of control | [10] 100 % of control

O=c1c2ccccc2nnn1Cc1ccco1
inactive: dose: 50.0 mg/kg/injection, schedule: Q01DX005 (ip), vehicle: saline with Tween-80 99 % of control | dose: 200.0 mg/kg/injection, schedule: Q01DX005 (ip), vehicle: saline with Tween-80 89 % of control

Cc1cccc2cc3cccc[n+]3cc12
inactive: dose: 1.56 mg/kg/injection, schedule: Q01DX009 (ip), vehicle: saline 104 % of control | dose: 3.12 mg/kg/injection, schedule: Q01DX009 (ip), vehicle: saline 104 % of control | dose: 6.25 mg/kg/injection, schedule: Q01DX009 (ip), vehicle: saline 109 % of control | dose: 6.75 mg/kg/injection, schedule: Q04DX003 (ip), vehicle: saline 105 % of control | dose: 9.2 mg/kg/injection, schedule: Q01DX009 (ip), vehicle: saline 109 % of control | dose: 13.5 mg/kg/injection, schedule: Q04DX003 (ip), vehicle: saline 90 % of control

O=C(N=Nc1c(O)[nH]c2c(Cl)cc(Cl)cc12)C(=O)Nc1cccc(C(F)(F)F)c1
inactive: [2] 90 % of control | [3] 96 % of control
